Experimental data taken from ChEMBL document CHEMBL1201862, “PubChem BioAssay data set” (2004).
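Cultured in 96-well plates, cells were exposed to test compound for 48 hours across five concentrations. At the GI50, growth is halved.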 The source made the active and inactive calls. Rule as the data show it: active = GI50 up to about 1.1 µM and inactive = higher.

What was measured:
Assay in all cases: inhibition of tumour cell growth, NCI panel, 48 h
OVCAR-8 = system: OVCAR-8
UO-31 = system: UO-31
Malme-3M = system: Malme-3M
HL-60 = system: HL-60
HOP-92 = system: HOP-92
HCT-15 = system: HCT-15
NCI-H226 = system: NCI-H226
HCT-116 = system: HCT-116
NCI-H460 = system: NCI-H460
MDA-MB-435 = system: MDA-MB-435
NCI-H23 = system: NCI-H23
NCI-H522 = system: NCI-H522
SF-295 = system: SF-295
SN12C = system: SN12C
HOP-62 = system: HOP-62
K562 = system: K562
U-251 = system: U-251
CAKI-1 = system: CAKI-1
NCI/ADR-RES = system: NCI/ADR-RES
SF-539 = system: SF-539

Structure (SMILES) | GI50 (OVCAR-8) | GI50 (UO-31) | GI50 (Malme-3M) | GI50 (HL-60) | GI50 (HOP-92) | GI50 (HCT-15) [µM] | GI50 (NCI-H226) | GI50 (HCT-116) | GI50 (NCI-H460) | GI50 (MDA-MB-435) | GI50 (NCI-H23) | GI50 (NCI-H522) | GI50 (SF-295) | GI50 (SN12C) | GI50 (HOP-62) | GI50 (K562) | GI50 (U-251) | GI50 (CAKI-1) | GI50 (NCI/ADR-RES) | GI50 (SF-539)
C=CCn1c2c(c3ccccc3c1=O)C(=O)c1ccccc1-2 | > 88.9 µM (inactive) | > 100 µM (inactive) | > 100 µM (inactive) | 3.41 µM (inactive) | > 100 µM (inactive) | > 100 | > 100 µM (inactive) | > 26.2 µM (inactive) | 6.28 µM (inactive) | > 87.3 µM (inactive) | > 100 µM (inactive) | > 100 µM (inactive) | > 77.8 µM (inactive) | > 100 µM (inactive) | 31.4 µM (inactive) | > 23 µM (inactive) | 30.8 µM (inactive) | > 100 µM (inactive) | > 100 µM (inactive) | > 70.6 µM (inactive)
CC(=O)NS(=O)(=O)c1ccc(NCc2cccc3c(=O)c4ccc(Cl)cc4oc23)cc1 | 16.9 µM (inactive) | 25.4 µM (inactive) | 26.4 µM (inactive) | 1.44 µM (inactive) | 16.6 µM (inactive) | 7.76 | 93.3 µM (inactive) | > 26.7 µM (inactive) | 19.7 µM (inactive) | 38.3 µM (inactive) | 33 µM (inactive) | 27.4 µM (inactive) | 51.4 µM (inactive) | > 65.6 µM (inactive) | 39.1 µM (inactive) | 6.14 µM (inactive) | 31.6 µM (inactive) | 20.5 µM (inactive) | 31.6 µM (inactive) | 17.1 µM (inactive)
Cc1cc(=O)oc2c(OS(C)(=O)=O)c(OS(C)(=O)=O)ccc12 | > 100 µM (inactive) | > 100 µM (inactive) | > 100 µM (inactive) | > 100 µM (inactive) | > 100 µM (inactive) | > 100 | > 100 µM (inactive) | > 100 µM (inactive) | > 100 µM (inactive) | > 100 µM (inactive) | > 100 µM (inactive) | > 100 µM (inactive) | > 100 µM (inactive) | > 100 µM (inactive) | > 100 µM (inactive) | > 100 µM (inactive) | > 100 µM (inactive) | > 100 µM (inactive) | > 100 µM (inactive) | > 100 µM (inactive)
c1cnc2c(c1)ccc1cccnc12 | 4.36 µM (inactive) | 2.3 µM (inactive) | 3.56 µM (inactive) | 0.354 µM (active) | 8.91 µM (inactive) | 3.12 | 2.05 µM (inactive) | 3.78 µM (inactive) | 2.74 µM (inactive) | 5.21 µM (inactive) | 5.12 µM (inactive) | 5.86 µM (inactive) | 3.52 µM (inactive) | 3.27 µM (inactive) | 5.83 µM (inactive) | 3.67 µM (inactive) | > 20.2 µM (inactive) | 3.18 µM (inactive) | 2.37 µM (inactive) | 3.72 µM (inactive)
COc1ccc(N2C(=O)[C@H]3CC(C)c4c([nH]c5ccccc45)[C@H]3C2=O)cc1 (stereo not given in full) | 5.64 µM (inactive) | 5.61 µM (inactive) | 2.11 µM (inactive) | 1.83 µM (inactive) | 4.65 µM (inactive) | 2.72 | 5.66 µM (inactive) | 3.37 µM (inactive) | 3.69 µM (inactive) | 0.611 µM (active) | 3.8 µM (inactive) | 1.1 µM (active) | 1.74 µM (inactive) | 6.38 µM (inactive) | 2.15 µM (inactive) | 1.15 µM (inactive) | 3.15 µM (inactive) | 3.08 µM (inactive) | 1.63 µM (inactive) | 2.77 µM (inactive)
Cc1nnc(Sc2nc(C#N)c(C#N)nc2Sc2nnc(C)s2)s1 | 2.47 µM (inactive) | 3.35 µM (inactive) | 0.139 µM (active) | 2.72 µM (inactive) | 2.14 µM (inactive) | 2.6 | 20.8 µM (inactive) | 10.3 µM (inactive) | 28.6 µM (inactive) | 12.7 µM (inactive) | 17.5 µM (inactive) | 1.57 µM (inactive) | 22.8 µM (inactive) | 9.33 µM (inactive) | 23.3 µM (inactive) | 3.48 µM (inactive) | 19.8 µM (inactive) | 2.32 µM (inactive) | 17.7 µM (inactive) | 12 µM (inactive)
